Patent US20180117176A1, “POROUS SILICON MICROPARTICLE-BASED CANCER VACCINES AND METHODS FOR POTENTIATING ANTI-TUMOR IMMUNITY” (The Methodist Hospital, priority 2015, published 2018)
Where a SMILES comes first, the peptide text is derived from it. The star is where a group is joined. Cbz = O=C(OCc1ccccc1)*

Tests used:
Format in all cases: cell-based, mouse
Ifn-α4 and Ifn-β genes = experiment: QPCR analysis of Ifn-α4 and Ifn-β gene expression in BMDCs; conditions: BMDCs pre-treated with chemical inhibitor
Description: FIG. 3A, FIG. 3B, FIG. 3C, and FIG. 3D show PSM-induced IFN-I signaling in DCs. […] Cell culture medium served as the negative control. […] FIG. 3C is a QPCR analysis of mRNA levels of the Ifn-α4 and Ifn-β genes in BMDCs 5 hrs after co-incubation with PSM, free antigen, or PSM/OVA antigen. […] Data are presented as mean±S.D.; *, P <0.05, **, P <0.01 (see also FIG. 9A and FIG. 9B);
FIG. 4A, FIG. 4B, FIG. 4C, FIG. 4D, FIG. 4E, FIG. 4F, FIG. 4G, FIG. 4H, FIG. 4I, and FIG. 4J show TRIF and MAVS mediated PSM induced interferon type I (IFN-I) activation. FIG. 4A, FIG. 4B, FIG. 4C, and FIG. 4D illustrate PSM-induced changes of Ifn-α4 and Ifn-β gene expression in BMDCs infected with lentiviruses carrying shRNAs targeting the indicated genes. FIG. 4E, FIG. 4F, FIG. 4G, and FIG. 4H illustrate PSM-induced changes of Ifn-α4 and Ifn-β gene expression in BMDCs isolated from wild-type or gene knockout mice. […] FIG. 4J is a schematic view of PSM-induced signaling pathway that mediates IFN-I activation. Data are presented as mean±S.D.; *, P <0.05, **, P <0.01; (see also FIG. 10A, FIG. 10B, FIG. 10C, FIG. 10D, FIG. 10E, and FIG. 10F);
FIG. 10A, FIG. 10B, FIG. 10C, FIG. 10D, FIG. 10E, and FIG. 10F show PSM induced activation of IFN-I signaling in DCs. […]
Real-Time PCR. […] The expression of individual genes was calculated by a ΔΔCT method, and normalized to the expression of β-actin. […]

[1] = tested on: OVA-specific B3Z CD8 T cells; experiment: In vitro antigen presentation assay, IL-2 production by B3Z cells; conditions: DCs treated with inhibitor before co-incubation with soluble OVA
Description: In Vitro Antigen Presentation Assay. The in vitro antigen presentation assay was performed as previously described (Mukai et al., 2011). Briefly, DC2.4 cells or BMDCs isolated from C57BL/6 mice or TAP^−/− mice were seeded in a 96-well flat-bottom culture plates at a density of 2×10^5 cells/well, and cultured for 12 hrs at 37° C. Each well was washed once with PBS, and then the cells were pulsed with soluble OVA, PSM/OVA, OVA-derived MHC class I epitope peptide [OVA257-264; SIINFEKL (SEQ ID NO:1)], or MHC class II epitope peptide [OVA323-339; ISQAVHAAHAEINEAGR (SEQ ID NO:2); Peptide 2.0] for indicated time points, and immediately fixed with 1% paraformaldehyde. The cells were then co-cultured with 2×10^5 B3Z cells or 2×10^5 DOBW cells for 18 hrs at 37° C. The response of stimulated B3Z or DOBW cells was assessed by determining the amount of IL-2 released into the culture medium using a murine IL-2 ELISA KIT (Ebioscience, San Diego, Calif., USA). […]
T-cell response to antigen cross-presentation of PSM-loaded OVA (PSM/OVA) was next assessed in DCs using an in vitro antigen presentation assay. […] It was subsequently determined whether PSM packaging could induce sustained antigen presentation. […]

DCs (DC2.4 cells, BMDCs) = experiment: DC uptake of PSM/FITC-OVA in cell culture
Excerpt: FIG. 1A, FIG. 1B, FIG. 1C, FIG. 1D, FIG. 1E, FIG. 1F, and FIG. 1G show PSM-loaded antigen was efficiently internalized by dendritic cells (DCs) through phagocytosis and macropinocytosis. […] Upper panel, DC2.4 cells; lower panel, bone-marrow-derived dendritic cells (BMDCs). Scale bar, 25 μm. FIG. 1B is a representative transmission electron microscopy (TEM) image showing the vesicular structure around a PSM/OVA particle inside a DC. Upper panel magnification=5,000×; lower panel magnification=50,000×. Upper panel scale bar=4 μm; lower panel bar=0.5 μm. […] The DCs were extensively washed after priming with 5 μg/mL soluble peptide or PSM/peptides, and either immediately co-incubated with B3Z cells (0 hrs), or cultured for 18 to 30 hrs before T-cell co-incubation; Data are presented as mean±S.D.; *, P <0.05, **, P <0.01; (See also FIG. 7A-FIG. 7E);
Confocal Laser Scanning Microscopy. DC2.4 cells or BMDCs were seeded on eight-well chamber slides at a density of 1×10^5 cells/well and cultured for 24 hrs at 37° C. Each well was washed twice with PBS, and the cells were pulsed with FITC-OVA or PSM/FITC-OVA for 20 min. Cells were washed twice with PBS and incubated for an additional 30 min, 1, 3, or 6 hours in culture medium at 37° C. […] The samples were embedded with Prolong® Gold anti-fade reagent with DAPI (Invitrogen) and analyzed by confocal laser scanning microscopy (Olympus IX81). […]

DCs = experiment: Intracellular antigen trafficking by confocal microscopy
Description: FIG. 2A, FIG. 2B, and FIG. 2C show antigen presentation of PSM-loaded OVA. FIG. 2A illustrates subcellular transport of antigens. DCs were incubated with PSM/FITC-OVA for 0.5 hrs, and then washed extensively to remove unbound particles. The cells were cultured for an additional 0.5 hr, 1 hr, 3 hrs, or 6 hrs before fixation, followed by immunostaining with antibodies recognizing specific organelles (EEA1 for early endosome; Rab7 for late endosome; TR for recycling endosome; and KDEL for the ER). Scale bar=25 μm. […] Peptide I (100 ng/mL) served as the positive control. […] BMDCs were incubated with OVA or PSM/OVA for 16 hrs, followed by harvest and labeling with the anti-CD11c antibody identifying DCs and the 25D1.16 antibody recognizing OVA257-264/H-2K^b complex on DC surface. Percentages of 25D1.16-staining positive populations in DCs are shown in red numbers. Data are presented as mean±S.D; *, P <0.05, **, P <0.01 (see also FIG. 8A, FIG. 8B and FIG. 8C);
Confocal Laser Scanning Microscopy. DC2.4 cells or BMDCs were seeded on eight-well chamber slides at a density of 1×10^5 cells/well and cultured for 24 hrs at 37° C. Each well was washed twice with PBS, and the cells were pulsed with FITC-OVA or PSM/FITC-OVA for 20 min. […] The samples were embedded with Prolong® Gold anti-fade reagent with DAPI (Invitrogen) and analyzed by confocal laser scanning microscopy (Olympus IX81).

Row | Compound | Effect of inhibitor on IFN-I induction by PSM (Ifn-α4 and Ifn-β genes) | Effect of inhibitor pre-treatment on particle internalization (DCs (DC2.4 cells, BMDCs)) | other results
1 | O=C(NCCCNc1nc(Nc2cccc(NC(=O)N3CCCC3)c2)ncc1I)c1cccs1 [BX795] | markedly inhibited IFN-I induction |  | 
2 | CC(C)C[C@@H](C=O)NC(=O)[C@H](CC(C)C)NC(=O)[C@H](CC(C)C)NC(=O)OCc1ccccc1 [MG-132] (Cbz-Leu-Leu-Leu-aldehyde) |  |  | Effect on class I antigen presentation of soluble OVA [1]: completely blocked
3 | N=C(N)NC(=O)c1nc(Cl)c(N)nc1N [amiloride] |  | significantly decreased particle internalization | 
4 | C=C1[C@@H](C)[C@H]2[C@H](Cc3ccccc3)NC(=O)[C@]23[C@H](OC(C)=O)/C=C/[C@@](C)(O)C(=O)[C@@H](C)C/C=C/[C@H]3[C@@H]1O [cytochalasin D] | suppressed IFN-I induction by PSM | significantly decreased particle internalization | 
5 | free FITC-OVA: free FITC-conjugated ovalbumin |  |  | Signal inside DCs at 6 hrs (DCs): very weak signal by 6 hour
